ChEMBL document CHEMBL1132463, “Metabolism-based brain-targeting system for a thyrotropin-releasing hormone analogue” (1999)
Square brackets hold non-standard residues; d marks the D form. Peptide text beside a SMILES is read from it. * marks the point of attachment. Nicotinoyl(1-Me-1,4-dihydro) = CN1C=CCC(C(=O)*)=C1; X1 = CC(C)CCC(C)C1CCC2C3CC=C4CC(O*)CCC4(C)C3CCC12C; pGlu = O=C1CC[C@@H](C(=O)O)N1

Tested on: Mus musculus
Assay: Barbiturate-induced sleeping time in mice after the administration of the compound
Assay type: functional

SMILES | Sleeping time [min]
CC(C)C[C@H](NC(=O)[C@@H]1CCC(=O)N1)C(=O)N1CCC[C@H]1C(N)=O ([pGlu]-Leu-Pro-NH2) | 45.5
CC(C)CCC(C)C1CCC2C3CC=C4CC(OC(=O)CNC(=O)[C@@H]5CCCN5C(=O)[C@H](CC(C)C)NC(=O)[C@H](CCC(N)=O)NC(=O)[C@H](C)NC(=O)[C@H](C)NC(=O)C5=CN(C)C=CC5)CCC4(C)C3CCC12C (some centres not stated) ({Nicotinoyl(1-Me-1,4-dihydro)}-AAQLPG-X1) | 37
CC(C)CCC(C)C1CCC2C3CC=C4CC(OC(=O)CNC(=O)[C@@H]5CCCN5C(=O)[C@H](CC(C)C)NC(=O)[C@H](CCC(N)=O)NC(=O)[C@@H]5CCCN5C(=O)[C@H](C)NC(=O)C5=CN(C)C=CC5)CCC4(C)C3CCC12C (some centres not stated) ({Nicotinoyl(1-Me-1,4-dihydro)}-APQLPG-X1) | 35
CC(C)CCC(C)C1CCC2C3CC=C4CC(OC(=O)CNC(=O)[C@@H]5CCCN5C(=O)[C@H](CC(C)C)NC(=O)[C@H](CCC(N)=O)NC(=O)[C@H](C)NC(=O)C5=CN(C)C=CC5)CCC4(C)C3CCC12C (some centres not stated) ({Nicotinoyl(1-Me-1,4-dihydro)}-AQLPG-X1) | 38
CC(C)CCC(C)C1CCC2C3CC=C4CC(OC(=O)CNC(=O)[C@@H]5CCCN5C(=O)[C@H](CC(C)C)NC(=O)[C@H](CCC(N)=O)NC(=O)[C@H](C)NC(=O)[C@@H]5CCCN5C(=O)C5=CN(C)C=CC5)CCC4(C)C3CCC12C (some centres not stated) ({Nicotinoyl(1-Me-1,4-dihydro)}-PAQLPG-X1) | 24.3
CC(C)CCC(C)C1CCC2C3CC=C4CC(OC(=O)CNC(=O)[C@@H]5CCCN5C(=O)[C@H](CC(C)C)NC(=O)[C@H](CCC(N)=O)NC(=O)[C@@H]5CCCN5C(=O)[C@@H]5CCCN5C(=O)C5=CN(C)C=CC5)CCC4(C)C3CCC12C (some centres not stated) ({Nicotinoyl(1-Me-1,4-dihydro)}-PPQLPG-X1) | 26.8
CC(C)CCC(C)C1CCC2C3CC=C4CC(OC(=O)CNC(=O)[C@@H]5CCCN5C(=O)[C@H](CC(C)C)NC(=O)[C@H](CCC(N)=O)NC(=O)[C@@H]5CCCN5C(=O)C5=CN(C)C=CC5)CCC4(C)C3CCC12C (some centres not stated) ({Nicotinoyl(1-Me-1,4-dihydro)}-PQLPG-X1) | 29.2
